Reference: US20150258139A1, “METHODS FOR TREATMENT OF CANCER USING LIPOPLATIN” (REGULON, INC., priority 2012, published 2015)
Several values for one entry are separate records, joined by “and”; a condition that tells them apart may be missing. Equal entries are not always repeated. Where two headings read alike, the source gives them in different places.

What was measured:
F98 glioma tumor [1] = format: in vivo; conditions: drug alone
F98 glioma tumor [2] = test: Mean survival time of F98 glioma bearing Fischer rats, platinum drugs combined with Gamma Knife irradiation; format: in vivo
F98 glioma tumor [3] = test system: F98 glioma tumor
[4] = test system: metastatic colorectal cancer; conditions: cited from earlier work
pancreatic cancer = conditions: gemcitabine alone; cited from earlier work
[5] = test system: Nonmetastatic Castrate-Resistant Prostate Cancer; conditions: monotherapy (Ogita et al); cited from earlier work
[6] = IA + BBBD, 24 h after administration, ± SD
[7] = IA + BBBD, 24 h after administration, ± SD, listed as carboplatin
[8] = IA, 24 h after administration, ± SD
[9] = IA, 24 h after administration, ± SD, listed as carboplatin
[10] = IV, 24 h after administration, ± SD

Molecule: N.N.O=C([O-])C1(C(=O)[O-])CCC1.[Pt+2] [Carboplatin]
- mean survival time (F98 glioma tumor [1]; IA + opening BBB): 33.7 ± 2.0 days
- mean survival time (F98 glioma tumor [1]; IA, sham group 22.5±0.6 days): 31.0 ± 3.6 days
- mean survival time (F98 glioma tumor [1]; IV, sham group 22.6±1.2 days): did not significantly increase
- mean survival time (F98 glioma tumor [2]; IA + opening of BBB + radiation 15 Gy, sham group+IR 34.5±2.2 days): 38.0 ± 6.4 days
- increase of mean survival time compared to the sham IR group (F98 glioma tumor [2]; IA + radiation 15 Gy): 10.7 days
- mean survival time (F98 glioma tumor [2]; IA + radiation 15 Gy, sham group+IR 34.0±6.1 days): 44.7 ± 6.1 days
- increase of accumulation in cytoplasm of tumor cells by opening of the BBB (F98 glioma tumor [3]; IA + BBBD vs IA): 4.7 fold
- increase of accumulation in nucleus of tumor cells by opening of the BBB (F98 glioma tumor [3]; IA + BBBD vs IA): 18 fold
- Platinum in brain tumor (F98 glioma tumor [3]; [6]): 987 ± 621 ng of platin/g tissue
- Platinum in cytoplasm of tumor cells (F98 glioma tumor [3]; [6]): 398 ± 191 ng of platin/g tissue
- Platinum in healthy contra lateral brain (F98 glioma tumor [3]; [6]): 242 ± 59 ng of platin/g tissue
- Platinum in nucleus of tumor cells (F98 glioma tumor [3]; [6]): 160 ± 85 ng of platin/g tissue
- Platinum in cytoplasm of tumor cells (F98 glioma tumor [3]; [7]): 398±191 ng of platin/g tissue
- Platinum in nucleus of tumor cells (F98 glioma tumor [3]; [7]): 160±85 ng of platin/g tissue
- effect of the IA route on tumor uptake and specificity (F98 glioma tumor [3]; IA vs IV, tumor vs contra lateral brain): improved both the tumor uptake and specificity
- Platinum in brain tumor (F98 glioma tumor [3]; [8]): 469 ± 241 ng of platin/g tissue
- Platinum in cytoplasm of tumor cells (F98 glioma tumor [3]; [8]): 84 ± 61 ng of platin/g tissue
- Platinum in healthy contra lateral brain (F98 glioma tumor [3]; [8]): 70 ± 48 ng of platin/g tissue
- Platinum in nucleus of tumor cells (F98 glioma tumor [3]; [8]): 9 ± 7 ng of platin/g tissue
- Platinum in cytoplasm of tumor cells (F98 glioma tumor [3]; [9]): 84±61 ng of platin/g tissue
- Platinum in nucleus of tumor cells (F98 glioma tumor [3]; [9]): 9±7 ng of platin/g tissue
- uptake in the nucleus of cancer cells (F98 glioma tumor [3]; IV route): ~4 ng platinum/g tissue
- Platinum in brain tumor (F98 glioma tumor [3]; [10]): 145 ± 27 ng of platin/g tissue
- Platinum in cytoplasm of tumor cells (F98 glioma tumor [3]; [10]): 13 ± 4 ng of platin/g tissue
- Platinum in healthy contra lateral brain (F98 glioma tumor [3]; [10]): 27 ± 2 ng of platin/g tissue
- Platinum in nucleus of tumor cells (F98 glioma tumor [3]; [10]): 0.5 ± 0.8 ng of platin/g tissue

Molecule: O=C1[O][Pt]2([NH][C@@H]3CCCC[C@H]3[NH]2)[O]C1=O [Oxaliplatin]
- mean survival time (F98 glioma tumor [1]; IA, sham group 22.5±0.6 days): 22.0 ± 4.7 days
- mean survival time (F98 glioma tumor [1]; IV, sham group 22.6±1.2 days): did not significantly increase
- uptake in the nucleus of cancer cells (F98 glioma tumor [3]; IV route): 78±8 ng platinum/g tissue
- Platinum in cytoplasm of tumor cells (F98 glioma tumor [3]; [10]): 292 ± 128 ng of platin/g tissue
- Platinum in nucleus of tumor cells (F98 glioma tumor [3]; [10]): 78 ± 8 ng of platin/g tissue
- objective responses, % of patients ([4]; 2 small trials of first-line monotherapy (Wiseman et al)): 20% and 24%
- response rate ([4]; first line monotherapy, metastatic colorectal cancer patients): 24%
- objective responses, % of patients ([4]; monotherapy as second-line option (Wiseman et al)): about 10%
- overall response rate ([4]; monotherapy, second line, colorectal cancer, Japanese study (Boku et al)): 9%

Molecule: Nc1ccn([C@@H]2O[C@H](CO)[C@@H](O)C2(F)F)c(=O)n1 [gemcitabine]
- one-year survival (pancreatic cancer): 17%

Molecule: N.N.[Cl][Pt][Cl] [Cisplatin]
- mean survival time (F98 glioma tumor [1]; IA, sham group 22.5±0.6 days): 13.3 ± 0.1 days
- mean survival time (F98 glioma tumor [1]; IV, sham group 22.6±1.2 days): 18.1 ± 0.9 days
- Platinum in cytoplasm of tumor cells (F98 glioma tumor [3]; rat, in vivo, iv): 251 ± 48 ng of platin/g tissue
- Platinum in nucleus of tumor cells (F98 glioma tumor [3]; rat, in vivo, iv): 67 ± 14 ng of platin/g tissue
- uptake in the nucleus of cancer cells (F98 glioma tumor [3]; rat, in vivo, iv): 67±14 ng platinum/g tissue

Molecule: Avastin®: humanized monoclonal antibody that binds to and inhibits human vascular endothelial growth factor (VEGF)
- efficacy [5]: marginal efficacy
